# Results reported in ChEMBL document CHEMBL2086257, “Rhododendric acid A, a new ursane-type PTP1B inhibitor from the endangered plant Rhododendron brachycarpum G. Don” (Bioorg Med Chem Lett, 2012).
# Target: T1, Tyrosine-protein phosphatase non-receptor type 1 (Homo sapiens, UniProt P18031)
# T1 sequence (P18031 whole entry): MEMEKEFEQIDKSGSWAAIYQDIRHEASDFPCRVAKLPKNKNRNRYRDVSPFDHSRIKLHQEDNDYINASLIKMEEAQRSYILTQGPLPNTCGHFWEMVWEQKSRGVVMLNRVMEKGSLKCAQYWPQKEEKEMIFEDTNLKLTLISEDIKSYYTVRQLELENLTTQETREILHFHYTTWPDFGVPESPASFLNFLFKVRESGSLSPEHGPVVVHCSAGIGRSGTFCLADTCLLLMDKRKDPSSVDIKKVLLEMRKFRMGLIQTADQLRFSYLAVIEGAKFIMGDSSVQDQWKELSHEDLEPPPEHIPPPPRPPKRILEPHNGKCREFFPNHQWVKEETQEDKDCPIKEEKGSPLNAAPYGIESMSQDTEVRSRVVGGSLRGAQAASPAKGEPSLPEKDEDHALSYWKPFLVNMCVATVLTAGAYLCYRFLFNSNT
# Assay: Inhibition of human recombinant PTP1B using p-nitrophenyl phosphate as substrate assessed as p-nitrophenol release after 30 mins
row,IC50,Structure (SMILES)
1,7 µM,C[C@H]1[C@H](C)CC[C@]2(C(=O)O)CC[C@]3(C)C(=CC[C@@H]4[C@@]5(C)C[C@@H](O)[C@H](O)C(C)(C)[C@@H]5CC[C@]43C)[C@H]12 [COROSOLIC ACID]
2,6.3 µM,C=C1CC[C@]2(C(=O)O)CC[C@]3(C)C(=CC[C@@H]4[C@@]5(C)CC[C@H](O)[C@@](C)(CO)[C@@H]5CC[C@]43C)[C@@H]2[C@H]1C [RHODODENDRIC ACID A]
3,20.1 µM,C[C@@H]1CC[C@]2(C(=O)O)CC[C@]3(C)C(=CC[C@@H]4[C@@]5(C)CC[C@H](O)[C@@](C)(CO)[C@@H]5CC[C@]43C)[C@@H]2[C@]1(C)O [ROTUNDIC ACID]

# The next lines start with the compound.
row,Structure (SMILES),IC50
1,C=C1CC[C@]2(C(=O)O)CC[C@]3(C)C(=CC[C@@H]4[C@@]5(C)C[C@@H](O)[C@H](O)[C@@](C)(CO)[C@@H]5CC[C@]43C)[C@@H]2[C@H]1C [ACTINIDIC ACID],18 µM
2,C=C1CC[C@]2(C(=O)O)CC[C@]3(C)C(=CC[C@@H]4[C@@]5(C)C[C@@H](O)[C@@H](O)[C@@](C)(CO)[C@@H]5CC[C@]43C)[C@@H]2[C@H]1C,17.4 µM
3,CCCCCCCCCCCCCCCC(=O)C1=C(O)[C@@H](CO)OC1=O,4 µM
4,C[C@H]1[C@H](C)CC[C@]2(C(=O)O)CC[C@]3(C)C(=CC[C@@H]4[C@@]5(C)CC[C@H](O)[C@@](C)(CO)[C@@H]5CC[C@]43C)[C@H]12,7.4 µM
